From patent US8946441B2, “Polymorphs of an active pharmaceutical ingredient” (Sandoz AG, priority 2010, dated 2015)
Values after ≈ are worked out from the molar mass of the structure shown.

How the values were obtained:
[1] = Polymorphic stability on storage; assay type: physicochemical
[2] = Moisture sorption/desorption isotherm (SPS-11 moisture sorption analyzer); assay type: physicochemical; settings: for hygroscopicity: 0% to 90% RH, 25°C
Description: The moisture sorption/desorption isotherms were recorded with a SPS-11 moisture sorption analyzer (MD Messtechnik, Ulm, D). […] The equilibrium condition for each step was set to a mass constancy of ±0.01% over 30 min. The temperature was 25±0.1° C.

[3] = form A, prior art references (EP1020454, US 7,361,676); cited from earlier work
[4] = Water content according to Karl Fischer; assay type: physicochemical; settings: stored at 20° C., ambient pressure, 0% up to 90% relative humidity
[5] = Solubility determination of form I and form A in methanol/water (1:1 v/v), UV-spectrophotometry at 314 nm; assay type: physicochemical; settings: MeOH/H2O 50%:50% v/v, 5 to 180 min, FIG. 8
Description: 25 mg of Febuxostat form I or form A, obtained according to the procedure described in EP1020454 were stirred in a mixture of 20 ml of methanol and water (1:1 v/v). 1 ml of the suspension was withdrawn from each suspension within a time range of 5 to 180 min with the aid of a volumetric pipette and filtered. The filtrate was diluted to 25 ml with a 50% (v/v) methanol/water mixture and the concentration was determined by UV-spectrophotometry at 314 nm (apparatus: Shimadzu UV 1800).
A calibration curve was determined based on a series of known concentrations in the same solvent system.

[6] = Kinetics of conversion to hemihydrate G in a mix of methanol and water; assay type: physicochemical
Text: The solvent system methanol/water represents a model for the dissolution of solid states of Febuxostat, with the hemihydrate G representing a thermodynamic very stable form with low solubility in aqueous systems.

## Cc1nc(-c2ccc(OCC(C)C)c(C#N)c2)sc1C(=O)O [Form II, 2-(3-cyano-4-isobutyloxy-phenyl)-4-methyl-5-thiazolecarboxylic acid]
[1]; ambient temperature for 6 weeks
  polymorphic stability on storage: does not convert to another polymorphic form
[2]
  hygroscopicity: non hygroscopic
[2]; up to a relative humidity of 90%
  water uptake: no significant water uptake

## Cc1nc(-c2ccc(OCC(C)C)c(C#N)c2)sc1C(=O)O [form A, 2-(3-cyano-4-isobutyloxy-phenyl)-4-methyl-5-thiazolecarboxylic acid]
[3]
  solubility: 220 µg/mL (≈ 695 µM)

## Cc1nc(-c2ccc(OCC(C)C)c(C#N)c2)sc1C(=O)O [form I, 2-(3-cyano-4-isobutyloxy-phenyl)-4-methyl-5-thiazolecarboxylic acid]
[1]; stress conditions, 40° C. for 3 months
  polymorphic stability on storage: does not change its polymorphic state properties
[4]
  water content (KF): below 0.1%
[5]
  increase in solubility compared to form A: approximately 20%
[2]; listed as polymorph I
  hygroscopicity: nonhygroscopic
[6]
  kinetics of conversion to hemihydrate G compared to anhydrate A: slower

## Cc1nc(-c2ccc(OCC(C)C)c(C#N)c2)sc1C(=O)O [tert.-amylalcohol solvate, 2-(3-cyano-4-isobutyloxy-phenyl)-4-methyl-5-thiazolecarboxylic acid]
[1]; ambient conditions in open atmosphere for 5 weeks
  stability on storage: stable
